The record followed here is patent publication US11541056B2, “3-hydroxy-N-(3-(7H-pyrrolo[2,3-d]pyrimidin-4-yl)phenyl)pyrrolidine-1-carboxamide derivatives” (NOVARTIS AG, priority 2018, dated 2023).

Where two headings read alike, the source gives them in different places.

Common to all, as to format: cell-based
In one assay the test system is OCI-LY3 cells. Description: Resazurin cell viability assay in DLBCL cells (OCI-LY3). As to conditions: OCI-LY3 cells (BTK independent), 50% growth inhibition, read-out: OCI-LY3 Prol GI50. Here is the method:
(§1) Compounds of the invention were tested in the following cellular assays. The terms in Table 1 are defined as follows: DC50 refers to the concentration at which 50% maximal degradation was observed; deg Amax is the extent of degradation and the value refers to the % protein remaining at the concentration at which maximum degradation is seen; Prol GI50 refers to the proliferation data and defines the concentration at which 50% growth inhibition was observed compared to the vehicle treated control at the end of the incubation time. TMD8 cells are BTK dependent and OCI-LY3 cells are BTK independent.
(§2) Cell Viability Assay in DLBCL (Diffuse Large B-Cell Lymphoma) Cells:
(§3) The effect of the BTK compounds on cell proliferation was measured by a Resazurin (Sigma, #R7017) based cell viability assay. TMD8 (BTK compound sensitive) and OCI-LY3 (BTK compound insensitive) cells were incubated for 72 h at 37° C. and 5% CO2 with the corresponding compound. Resazurin is a non-toxic, cell-permeable substrate that is virtually non-fluorescent. Upon entering living cells, Resazurin (Sigma, #R7017) is reduced to highly fluorescent Resorufin. The metabolic activity was assessed by measuring the fluorescence signal (ex. 530 nm; em. 600 nm).
(§4) TMD8 and OCI-Ly3 cells were seeded at day 0 in triplicates at a cell density of 1×10^4 cells per 150 μl/well in a 96-well plate (Costar #3904). Additional plates were prepared, in order to assess the basal metabolic activity of both cell lines at the beginning of the experiment. For these reference plates, Resazurin (Sigma, #R7017) was added to a final concentration of 13 μg/ml 3 h post seeding and was incubated for 2 h at 37° C. and 5% CO2. Following incubation, the fluorescent signal intensity of the 96-well plates was measured on a Mithras LB940 multimode plate reader at 530/600 nm (Berthold Technologies, Germany).
(§5) In parallel, 3 h post-seeding, test-plates were treated with compound at various concentrations, or with vehicle (DMSO) alone for 3 days. The compound addition to the plates was performed by using a HP D300 digital dispenser (TECAN, Switzerland). The compounds were tested in triplicate, 8-point serial dilution (1:4), with a start concentration of 10 μM for OCI-LY3 and 1 μM for the TMD8 cells, respectively. To assess the relative proliferation of the cells, Resazurin was added to each well directly to the medium to a final concentration of 13 μg/ml. The plates were incubated for 2 h at 37° C. and 5% CO2 to result in a 72 h endpoint. Following incubation, the fluorescent signal intensity of the 96-well plates were measured on a Mithras LB940 multimode plate reader at 530/600 nm (Berthold Technologies, Germany). The formation of Resorufin dye directly correlates with the number of metabolically active cells. For each triplicate treatment the mean and standard deviation were calculated and analyzed via curve fitting software to determine the respective compound concentration resulting in 50% growth inhibition (GI50) values. For each compound GI50 values were typically determined from at least 2 entirely independent experiments.
OCI-LY3 cells were acquired through a license agreement with University Health Network, Toronto, Canada. Cells are cultivated in RPMI1640 media (Gibco, #61870-010, lot. 1894759), supplemented with 10% FCS (HyClone, GE #SH30066.03, lot AB217603), 2 mM L-Glutamine (BioConcept, #5-10K50-H, lot. LA03467P), 1 mM Sodium Pyruvate (BioConcept, #5-60F00-H, lot. LB10510P), 10 mM HEPES (Gibco, #15630-056, lot. 1854074), 1% Pen/Strep (BioConcept, #4-01F00-H, lot. LB04235P).

The target in a further assay is T1, BTK-GFP (Homo sapiens, UniProt Q06187+Q96SW2).
T1 construct: the BTK open reading frame (ORF) was first shuttled from a pcDNA-DEST40-BTK vector (Invitrogen library ID INV_20090504v1); expressed in transfected cells; host or cells: HEK293A cells (Invitrogen R70507), lentiviral transduction with pLenti6-BTK-GFP-Ires-RFP, blasticidin-selected
T1 sequence (Q06187 whole entry): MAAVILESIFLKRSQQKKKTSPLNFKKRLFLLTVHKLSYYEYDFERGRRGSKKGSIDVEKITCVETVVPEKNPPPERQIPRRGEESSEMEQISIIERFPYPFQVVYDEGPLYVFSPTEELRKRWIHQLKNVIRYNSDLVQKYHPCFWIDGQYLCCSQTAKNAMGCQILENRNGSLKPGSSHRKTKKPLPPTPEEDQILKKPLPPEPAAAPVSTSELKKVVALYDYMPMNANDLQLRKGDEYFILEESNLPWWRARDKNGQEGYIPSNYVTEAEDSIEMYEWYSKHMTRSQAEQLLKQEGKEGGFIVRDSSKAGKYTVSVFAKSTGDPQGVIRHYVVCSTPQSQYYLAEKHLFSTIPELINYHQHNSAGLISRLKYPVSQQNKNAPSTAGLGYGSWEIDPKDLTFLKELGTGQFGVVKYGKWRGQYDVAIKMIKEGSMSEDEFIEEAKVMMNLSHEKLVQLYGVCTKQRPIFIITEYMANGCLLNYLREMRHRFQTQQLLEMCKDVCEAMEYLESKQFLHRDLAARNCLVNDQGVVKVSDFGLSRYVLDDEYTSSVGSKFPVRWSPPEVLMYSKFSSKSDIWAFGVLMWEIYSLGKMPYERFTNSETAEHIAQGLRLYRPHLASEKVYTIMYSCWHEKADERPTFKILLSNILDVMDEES
T1 sequence (Q96SW2 whole entry): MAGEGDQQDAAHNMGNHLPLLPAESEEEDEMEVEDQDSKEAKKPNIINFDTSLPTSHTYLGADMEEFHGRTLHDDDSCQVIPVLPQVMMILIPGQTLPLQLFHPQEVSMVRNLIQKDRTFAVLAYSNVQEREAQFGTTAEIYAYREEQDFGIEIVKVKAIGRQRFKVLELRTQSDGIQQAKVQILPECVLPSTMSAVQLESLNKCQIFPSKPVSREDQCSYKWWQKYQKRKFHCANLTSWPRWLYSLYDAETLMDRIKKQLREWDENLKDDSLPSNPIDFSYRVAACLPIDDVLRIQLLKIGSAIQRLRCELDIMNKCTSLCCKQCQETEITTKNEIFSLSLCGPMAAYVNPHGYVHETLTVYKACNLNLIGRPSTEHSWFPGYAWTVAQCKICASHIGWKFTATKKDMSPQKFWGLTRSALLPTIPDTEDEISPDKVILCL
T1 sequence (Q16531 whole entry partner): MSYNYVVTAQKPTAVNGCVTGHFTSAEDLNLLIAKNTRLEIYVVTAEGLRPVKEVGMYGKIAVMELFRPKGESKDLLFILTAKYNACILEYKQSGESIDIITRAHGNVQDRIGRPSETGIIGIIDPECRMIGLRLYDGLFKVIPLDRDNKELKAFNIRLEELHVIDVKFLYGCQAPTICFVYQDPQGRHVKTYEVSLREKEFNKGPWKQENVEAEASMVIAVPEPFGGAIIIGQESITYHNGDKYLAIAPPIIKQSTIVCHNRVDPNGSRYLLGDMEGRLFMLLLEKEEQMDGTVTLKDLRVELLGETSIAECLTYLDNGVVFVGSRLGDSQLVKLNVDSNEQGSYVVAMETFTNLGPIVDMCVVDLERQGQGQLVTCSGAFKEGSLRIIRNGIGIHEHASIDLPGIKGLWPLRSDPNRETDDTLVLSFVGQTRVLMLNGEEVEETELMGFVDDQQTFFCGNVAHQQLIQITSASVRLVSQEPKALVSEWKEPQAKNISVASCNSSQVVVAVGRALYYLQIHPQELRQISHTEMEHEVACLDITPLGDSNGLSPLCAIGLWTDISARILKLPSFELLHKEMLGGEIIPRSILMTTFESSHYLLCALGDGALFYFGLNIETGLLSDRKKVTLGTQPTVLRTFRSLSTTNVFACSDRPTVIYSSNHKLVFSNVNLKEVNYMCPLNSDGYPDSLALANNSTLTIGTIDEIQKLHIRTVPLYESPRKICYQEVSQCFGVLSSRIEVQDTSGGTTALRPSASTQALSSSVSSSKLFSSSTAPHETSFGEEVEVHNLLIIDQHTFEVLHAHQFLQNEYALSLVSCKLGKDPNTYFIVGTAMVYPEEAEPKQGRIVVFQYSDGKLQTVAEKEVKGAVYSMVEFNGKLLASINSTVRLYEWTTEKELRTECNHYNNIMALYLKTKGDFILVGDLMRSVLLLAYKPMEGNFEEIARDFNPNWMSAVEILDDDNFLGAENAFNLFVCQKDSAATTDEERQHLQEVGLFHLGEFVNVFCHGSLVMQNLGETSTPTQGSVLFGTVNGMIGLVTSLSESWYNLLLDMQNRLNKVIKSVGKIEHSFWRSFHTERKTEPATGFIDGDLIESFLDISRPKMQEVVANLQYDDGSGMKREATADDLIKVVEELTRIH
Description: BTK-GFP protein abundance flow cytometry assay in HEK293A cells. The note with it: 24 h; for BTK deg Amax %: % protein remaining at concentration of maximum degradation; for DC50: concentration at which 50% maximal degradation was observed. Here is the method:
as §1
BTK-GFP and IKZF3-GFP Protein Abundance Flow Cytometry Assay in HEK293A Cells:
Degradation of BTK or IKZF3 was measured in HEK293A cells (Invitrogen R70507) expressing either BTK-GFP and RFP or IKZF3-GFP and RFP from a stably integrated bicistronic BTK-GFP-iresRFP or IKZF3-GFP-iresRFP construct, respectively. Reduction of the GFP signal measured by flow cytometry served as readout for BTK or IKZF3 degradation after degrader treatment.
Stable HEK293A-BTK-GFP-iresRFP cells were maintained in complete growth medium (DMEM high Glucose+10% FCS+1% L-Glutamine+1% NEAA+1% NaPyr.) with passaging performed twice per week. On Day 0, HEK293A-BTK-GFP-iresRFP or HEK293A-IKZF3-GFP-iresRFP and HEK293A-iresRFP cells were seeded at 10,000 cells/well in a 96-well microtiter plate in 260 μl complete medium. On Day 1, cells were treated in duplicate with 10-point 1:3 dilution series of compound using the HP D300 Digital Dispenser (Tecan). DMSO concentrations were normalized across the plate to 0.1%. On Day 2, after 24 h of incubation at 37° C., treatment media was discarded, cells rinsed with 100 ul/well PBS and then detached using 40 ul trypsin/well for 5 min. Trypsin was neutralized with 100 ul/well PBS+20% FCS). Flow cytometry was performed on the samples using the BD FACS CANTO II (Becton Dickinson). Cell identification was then performed using forward (FSC) vs. side scatter (SSC) plots. Single cell discrimination is performed using SSC-Width (SSC-W) vs. SSC-Height (SSC-H) plots. Median GFP values for 5,000 single cells are used to determine BTK levels. Median GFP values from HEK293A-iresRFP are used as a background signal and thus defining 0% BTK signal. Median GFP values from DMSO treated HEK293A-BTK-GFP-iresRFP or HEK293A-IKZF3-GFP-iresRFP are used to define 100% BTK signal for subsequent DC50 curves (concentration at 50% BTK degradation). GFP and RFP are read in the channels called FITC and PE, respectively.
Concentration response curves plotting relative reduction of the GFP signal (measured by flow cytometry) versus 10 compound concentrations (starting concentration 10 μM, 3 fold dilution steps) of the compounds allowed generation of DC50 values.

Another assay relates to TMD8 cells. Briefly: Resazurin cell viability assay in DLBCL cells (TMD8). The note with it: TMD8 cells (BTK dependent), 50% growth inhibition, read-out: TMD8 Prol GI50. Here is the method: as §1, §2, §3, §4, §5
TMD8 cells were acquired through a license agreement with Tokyo Medical and Dental University, Japan. Cells are cultivated in MEM Alpha (BioConcept, #1-23F01-I, lot. LB04262P) supplemented with 10% FCS (HyClone, GE #SH30066.03, lot AB217603), 2 mM L-Glutamine (BioConcept, #5-10K50-H, lot. LA03467P), 1% Pen/Strep (BioConcept, #4-01F00-H, lot. LB04235P).
(In general: Alamar Blue is a resazurin reagent that responds to reducing activity.)

For `COc1ccc(C(=O)N2CCC(CCN3CCC(OCc4ccc(-c5cc6c(-c7cc(F)cc(NC(=O)N8CC(O)C(CC(C)C)C8)c7C)ncnc6[nH]5)cc4)CC3)CC2)cc1N1CCC(=O)NC1=O` (racemic) [Compound 4, (cis-rac)-N-(3-(6-(4-(((1-(2-(1-(3-(2,4-Dioxotetrahydropyrimidin-1 (2H)-yl)-4-methoxybenzoyl)piperidin-4-yl)ethyl)piperidin-4-yl)oxy)methyl)phenyl)-7H-pyrrolo[2,3-d]pyrimidin-4-yl)-5-fluoro-2-methylphenyl)-3-hydroxy-4-isobutylpyrrolidine-1-carboxamide], the GI50 in the assay on OCI-LY3 cells (Homo sapiens, OCI-Ly3, 72 h) is 8220 nM. In addition, at BTK-GFP, the “BTK deg Amax %” value is listed as 1.9% and it took 1.5 nM to reach half-maximal degradation (DC50). Further, the 50% growth inhibitory concentration (GI50) in the assay with TMD8 cells (Homo sapiens, TMD8, 72 h) came to 0.34 nM.
Take `COc1ccc(C(=O)N2CCC(CN3CCN(Cc4ccc(-c5cc6c(-c7cc(F)cc(NC(=O)N8CC(O)C(CC(C)C)C8)c7C)ncnc6[nH]5)cc4)CC3)CC2)cc1N1CCC(=O)NC1=O` (racemic) [Compound 9, (cis-rac)-N-(3-(6-(4-((4-((1-(3-(2,4-Dioxotetrahydropyrimidin-1 (2H)-yl)-4-methoxybenzoyl)piperidin-4-yl)methyl)piperazin-1-yl)methyl)phenyl)-7H-pyrrolo[2,3-d]pyrimidin-4-yl)-5-fluoro-2-methylphenyl)-3-hydroxy-4-isobutylpyrrolidine-1-carboxamide]: the GI50 in the assay on OCI-LY3 cells (Homo sapiens, OCI-Ly3, 72 h) was 7150 nM. In addition, at BTK-GFP, the “BTK deg Amax %” value was 6.3% and the DC50 turned out to be 1.7 nM. In addition, the GI50 with TMD8 cells (Homo sapiens, TMD8, 72 h) turned out to be 0.75 nM.
Regarding `COc1ccc(C(=O)N2CCC3(CCN(Cc4ccc(-c5cc6c(-c7cc(F)cc(NC(=O)N8CC(O)C(CC(C)C)C8)c7C)ncnc6[nH]5)cc4)CC3)CC2)cc1N1CCC(=O)NC1=O` (racemic) [Compound 23, (cis-rac)-N-(3-(6-(4-((9-(3-(2,4-Dioxotetrahydropyrimidin-1(2H)-yl)-4-methoxybenzoyl)-3,9-diazaspiro[5.5]undecan-3-yl)methyl)phenyl)-7H-pyrrolo[2,3-d]pyrimidin-4-yl)-5-fluoro-2-methylphenyl)-3-hydroxy-4-isobutylpyrrolidine-1-carboxamide], the GI50 with OCI-LY3 cells (72 h) was greater than 10000 nM. Further, on BTK-GFP, the “BTK deg Amax %” value is 3.3% and the DC50 was 6.1 nM. Besides, the GI50 in the assay with TMD8 cells (72 h) is 2.36 nM.
With `COc1ccc(C(=O)N2CCC(CCN3CCC(Oc4ccc(-c5cc6c(-c7cc(F)cc(NC(=O)N8C[C@H](CC(C)C)[C@@H](O)C8)c7C)ncnc6[nH]5)cc4)CC3)CC2)cc1N1CCC(=O)NC1=O` [Compound 3, (3R,4S)—N-(3-(6-(4-((1-(2-(1-(3-(2,4-Dioxotetrahydropyrimidin-1(2H)-yl)-4-methoxybenzoyl)piperidin-4-yl)ethyl)piperidin-4-yl)oxy)phenyl)-7H-pyrrolo[2,3-d]pyrimidin-4-yl)-5-fluoro-2-methylphenyl)-3-hydroxy-4-isobutylpyrrolidine-1-carboxamide], in the assay on OCI-LY3 cells (Homo sapiens, OCI-Ly3, 72 h), the GI50 amounted to 4480 nM. Moreover, at BTK-GFP, the “BTK deg Amax %” value is 3% and half-maximal degradation (DC50) was put at 0.8 nM. For the same compound, the GI50 in the assay with TMD8 cells (Homo sapiens, TMD8, 72 h) was found to be 0.19 nM.
On the same counts, the results for `COc1ccc(C(=O)N2CCC3(CCN(CCc4ccc(-c5cc6c(-c7cc(F)cc(NC(=O)N8C[C@@H](CC(C)C)[C@@H](O)C8)c7C)ncnc6[nH]5)cc4)CC3)CC2)cc1N1CCC(=O)NC1=O` [Compound 7, (3R,4R)—N-(3-(6-(4-(2-(9-(3-(2,4-Dioxotetrahydropyrimidin-1(2H)-yl)-4-methoxybenzoyl)-3,9-diazaspiro[5.5]undecan-3-yl)ethyl)phenyl)-7H-pyrrolo[2,3-d]pyrimidin-4-yl)-5-fluoro-2-methylphenyl)-3-hydroxy-4-isobutylpyrrolidine-1-carboxamide] are greater than 10000 nM, 3.7%, 1.5 nM and 0.28 nM.
On the same counts, the results for `COc1ccc(C(=O)N2CCC(CN3CCC(COc4ccc(-c5cc6c(-c7cc(F)cc(NC(=O)N8C[C@H](CC(C)C)[C@@H](O)C8)c7C)ncnc6[nH]5)cc4)CC3)CC2)cc1N1CCC(=O)NC1=O` [Compound 14, (3R,4S)—N-(3-(6-(4-((1-((1-(3-(2,4-Dioxotetrahydropyrimidin-1 (2H)-yl)-4-methoxybenzoyl)piperidin-4-yl)methyl)piperidin-4-yl)methoxy)phenyl)-7H-pyrrolo[2,3-d]pyrimidin-4-yl)-5-fluoro-2-methylphenyl)-3-hydroxy-4-isobutylpyrrolidine-1-carboxamide] are 3820 nM, 3.4%, 0.7 nM and 0.24 nM.

As a reminder, the GI50 is the concentration giving 50% growth inhibition. By DC50 is commonly meant the concentration at which degradation of the target reaches its halfway point.
